Laboratory results published in US5849729A, “Use of hydrolyzed cocoa butter for percutaneous absorption” (Hershey Foods Corporation, priority 1995, dated 1998).
Several values for one entry are separate records, joined by “and”; a condition that tells them apart may be missing. Equal entries are not always repeated. Entries after “also recorded” stand apart in the source; their conditions may differ.

Test: In-vitro percutaneous absorption of retinoic acid and triamcinolone acetonide from two cocoa butter vehicles (Franz cells, 48 h)
Conditions: for % Abs (% Absorbed) / % Absorbed / total absorption: percent of applied dose
Excerpt: The objective of this study was to measure the permeation of retinoic acid and triamcinolone acetonide through human skin in-vitro from two cocoa butter vehicles.
Two cocoa butter vehicles supplied by Hershey Foods Corporation were utilized: (1) pure cocoa butter and (2) partially hydrolyzed cocoa butter emulsion. Radioactive [11,12-^3 H] [retinoic acid (NET 920, Lot 2930-067, specific activity 1 mCi/ml) and [6,7-^3 H]-triamcinolone acetonide (NET 470, Lot 2904-170, specific activity 1 mCi/ml) were obtained from Dupont-New England Nuclear Corporation, Boston, Mass.
Each of the two cocoa butter vehicles was spiked separately with ^3 H-retinoic acid and ^3 H-Triamcinolone acetonide to give a total of four radioactive formulations for study. This was done by adding 25 μl (containing 25 μCi) of each tracer solution to approximately 1 gram of each vehicle and mixing with the tip of the dispensing micropipette. The pure cocoa butter vehicle was liquified by holding it under warm tap water prior to spiking. This was not done with the partially hydrolyzed cocoa butter emulsion. Neither formulation was used for three days after spiking to allow for diffusional mixing to take place. Final radioactive concentrations of each formulation were: […]
Human trunk skin without obvious signs of disease was used throughout. It was obtained within 24 hours of death, dermatomed to a thickness of approximately 0.25 mm, cryopreserved and sealed in water vapor-impermeableplastic bags. It was stored at -70° C. until the day of use then thawed by placing the bag in 37° C. water.
Skin from a single donor was cut into multiple sections large enough to fit on 0.8 cm^2 Franz cells. The dermal chamber was filled with isotonic saline, pH 7.4, into which a small magnetic stirring bar was placed. The epidermal chamber was left open to the ambient laboratory environment, approximately 22° C. and 40-60% RH. The cells were placed in a diffusion apparatus in which the dermal receptor solution was stirred magnetically at 600 RPM and its temperature maintained at 37° C.
To assure the integrity of each skin section, its permeability to tritiated water was determined before application of the test formulations. Following a brief (0.5-1 hour) equilibration period, 150 μl ^3 H2 O (specific activity 0.3 μCi/ml) was layered across the top of the skin section so that the entire exposed surface was covered. After 5 minutes the aqueous layer was removed and the surface of the skin carefully blotted dry. At t=0.5 hour the saline receptor phase was removed and analyzed for radioactive content by liquid scintillation counting. Skin specimens in which absorption of ^3 H2 O was less than 1.25 μl were considered acceptable.
Subsequently, each test formulation was applied at a target dose of 10 mg (cream) or 10 μl (butter). The cream formulation (partially hydrolyzed cocoa butter emulsion) was applied from the smooth, rounded-tip of a glass rod, the exact amount determined by weighing the rod before and after application. The butter formulation (pure cocoa butter) was first liquified under warm tap water, allowed to cool to room temperature, then applied with a 10 μl positive displacement micropipette prior to resolidifying. At 4, 8, 12, 24, 36 and 48 hours the receptor solution was removed in its entirety, replaced with fresh solution, and a 1 ml aliquot taken and assayed for radioactive content by liquid scintillation counting.
A 1 ml aliquot of each receptor sample containing ^3 H2 O, ^3 H-retinoic acid, or ^3 H-triamcinolone acetonide was placed in a 7 ml glass scintillation vial and gelled by the addition of 5 ml Opti-Fluor (Packard Instrument Co., Meriden, Conn.). These were counted in a Packard Tri-Carb Model 1900CA Liquid scintillation Analyzer equipped with internal standard and automatic quench correction.

[1] = butter (pure cocoa butter), 48 h, individual skin sections
[2] = butter, 48 h, average of three donors
[3] = butter, 48 h, average per skin donor (n=4), listed as RETINOIC ACID
[4] = butter, 48 h, average per skin donor (n=4), listed as Retinoic Acid

## CC1=C(/C=C/C(C)=C/C=C/C(C)=C/C(=O)O)C(C)(C)CCC1 [retinoic acid]
Admixed with cocoa butter or partially hydrolyzed cocoa butter emulsion, in words
  absorption period versus current formulations: able to sustain a longer absorption period than has been demonstrated with current retinoic acid formulations
Both cocoa butter formulations
  steady state rate of absorption: approximately 15 ng/cm^2 /hr
Both cocoa butter formulations, in words
  rate of absorption profile / flux: higher than generally seen with other retinoic acid formulations; also recorded: relatively high flux rates
[1]
  Penet (Total Penetration): 729.80 and 954.98 and 769.08 and 941.38 and 725.19 and 871.67 and 741.10 and 1267.53 and 552.40 and 552.46 and 685.17 and 944.68
  % Abs (% Absorbed): 14.59% and 19.10% and 15.38% and 18.82% and 14.50% and 17.43% and 14.82% and 25.35% and 11.05% and 13.70% and 18.89%
Butter (pure cocoa butter), sample R1, mid-t 2 h, individual skin sections
  Rate of absorption, R1: 36.55 ng/cm^2 /hr and 48.20 ng/cm^2 /hr and 39.43 ng/cm^2 /hr and 51.22 ng/cm^2 /hr and 55.25 ng/cm^2 /hr and 66.87 ng/cm^2 /hr and 50.92 ng/cm^2 /hr and 79.43 ng/cm^2 /hr and 40.64 ng/cm^2 /hr and 39.67 ng/cm^2 /hr and 51.71 ng/cm^2 /hr and 75.03 ng/cm^2 /hr
Butter (pure cocoa butter), sample R3, mid-t 10 h, individual skin sections
  Rate of absorption, R3: 23.55 ng/cm^2 /hr and 28.39 ng/cm^2 /hr and 24.05 ng/cm^2 /hr and 29.61 ng/cm^2 /hr and 22.32 ng/cm^2 /hr and 21.53 ng/cm^2 /hr and 20.69 ng/cm^2 /hr and 34.12 ng/cm^2 /hr and 16.59 ng/cm^2 /hr and 15.24 ng/cm^2 /hr and 17.69 ng/cm^2 /hr and 25.75 ng/cm^2 /hr
Butter (pure cocoa butter), sample R4, mid-t 18 h, individual skin sections
  Rate of absorption, R4: 14.13 ng/cm^2 /hr and 23.33 ng/cm^2 /hr and 15.22 ng/cm^2 /hr and 18.56 ng/cm^2 /hr and 18.11 ng/cm^2 /hr and 20.56 ng/cm^2 /hr and 20.18 ng/cm^2 /hr and 33.78 ng/cm^2 /hr and 15.63 ng/cm^2 /hr and 14.10 ng/cm^2 /hr and 16.64 ng/cm^2 /hr and 23.97 ng/cm^2 /hr
Butter (pure cocoa butter), sample R5, mid-t 30 h, individual skin sections
  Rate of absorption, R5: 16.12 ng/cm^2 /hr and 19.00 ng/cm^2 /hr and 18.23 ng/cm^2 /hr and 16.25 ng/cm^2 /hr and 11.93 ng/cm^2 /hr and 15.30 ng/cm^2 /hr and 12.34 ng/cm^2 /hr and 23.05 ng/cm^2 /hr and 8.38 ng/cm^2 /hr and 9.60 ng/cm^2 /hr and 10.78 ng/cm^2 /hr and 16.34 ng/cm^2 /hr
Butter (pure cocoa butter), sample R6, mid-t 42 h, individual skin sections
  Rate of absorption, R6: 15.54 ng/cm^2 /hr and 17.94 ng/cm^2 /hr and 14.86 ng/cm^2 /hr and 24.92 ng/cm^2 /hr and 11.83 ng/cm^2 /hr and 16.34 ng/cm^2 /hr and 13.15 ng/cm^2 /hr and 24.58 ng/cm^2 /hr and 8.20 ng/cm^2 /hr and 9.16 ng/cm^2 /hr and 10.53 ng/cm^2 /hr and 14.03 ng/cm^2 /hr
[2]
  Total Penetration: 811.29
  % Absorbed / total absorption: 16.2%
[3]
  Penet (Total Penetration): 848.81 and 901.37 and 683.68
  % Abs (% Absorbed): 16.97% and 18.02% and 13.67%
[4]
  Penet (Total Penetration): 683.68 and 901.37 and 848.81
  % Abs (% Absorbed): 13.67% and 18.02% and 16.97%
butter, R1, mid-t 2 h, average of three donors
  Rate of absorption, R1: 52.91 ng/cm^2 /hr
butter, R1, mid-t 2 h, average per skin donor (n=4), listed as RETINOIC ACID
  Rate of absorption, R1: 43.85 ng/cm^2 /hr and 63.12 ng/cm^2 /hr and 51.76 ng/cm^2 /hr
butter, R1, mid-t 2 h, average per skin donor (n=4), listed as Retinoic Acid
  Rate of absorption, R1: 51.76 ng/cm^2 /hr and 63.12 ng/cm^2 /hr and 43.85 ng/cm^2 /hr
butter, R3, mid-t 10 h, average of three donors
  Rate of absorption, R3: 23.30 ng/cm^2 /hr
butter, R3, mid-t 10 h, average per skin donor (n=4), listed as RETINOIC ACID
  Rate of absorption, R3: 26.40 ng/cm^2 /hr and 24.67 ng/cm^2 /hr and 18.82 ng/cm^2 /hr
butter, R3, mid-t 10 h, average per skin donor (n=4), listed as Retinoic Acid
  Rate of absorption, R3: 18.82 ng/cm^2 /hr and 24.67 ng/cm^2 /hr and 26.40 ng/cm^2 /hr
butter, R4, mid-t 18 h, average of three donors
  Rate of absorption, R4: 19.52 ng/cm^2 /hr
butter, R4, mid-t 18 h, average per skin donor (n=4), listed as RETINOIC ACID
  Rate of absorption, R4: 17.81 ng/cm^2 /hr and 23.16 ng/cm^2 /hr and 17.59 ng/cm^2 /hr
butter, R4, mid-t 18 h, average per skin donor (n=4), listed as Retinoic Acid
  Rate of absorption, R4: 17.59 ng/cm^2 /hr and 23.16 ng/cm^2 /hr and 17.81 ng/cm^2 /hr
butter, R5, mid-t 30 h, average of three donors
  Rate of absorption, R5: 14.78 ng/cm^2 /hr
butter, R5, mid-t 30 h, average per skin donor (n=4), listed as RETINOIC ACID
  Rate of absorption, R5: 17.40 ng/cm^2 /hr and 15.66 ng/cm^2 /hr and 11.28 ng/cm^2 /hr
butter, R5, mid-t 30 h, average per skin donor (n=4), listed as Retinoic Acid
  Rate of absorption, R5: 11.28 ng/cm^2 /hr and 15.66 ng/cm^2 /hr and 17.40 ng/cm^2 /hr
butter, R6, mid-t 42 h, average of three donors
  Rate of absorption, R6: 15.09 ng/cm^2 /hr
butter, R6, mid-t 42 h, average per skin donor (n=4), listed as RETINOIC ACID
  Rate of absorption, R6: 18.31 ng/cm^2 /hr and 16.48 ng/cm^2 /hr and 10.48 ng/cm^2 /hr
butter, R6, mid-t 42 h, average per skin donor (n=4), listed as Retinoic Acid
  Rate of absorption, R6: 10.48 ng/cm^2 /hr and 16.48 ng/cm^2 /hr and 18.31 ng/cm^2 /hr
butter, 48 h, average of three donors, listed as Retinoic Acid
  % Absorbed / total absorption: 16.22%
